In US8288158B2, “Stem cells modified to facilitate threonine catabolism” (Board of Regents, The University of Texas System, priority 2009, dated 2012):

Columns and labels:
[1] = tested on: mouse ES cells; experiment: ES cell colony formation in normal or threonine-deficient medium with 3-HNV; format: cell-based; settings: varying levels of 3-HNV
Description: Instead of the normal, 400 uM level of glycine, threonine-deficient medium was supplemented with 4 mM glycine. ES cells subjected to this threonine-deficient, glycine-enriched medium grew no better than those subjected to the threonine drop out medium itself. It is possible that ES cells are unable to deliver the supplemented glycine to mitochondria in order to feed the glycine cleavage system and folate charging. Alternatively, it is also possible that TDH-mediated production of acetyl-CoA is equally important to the HFB-like metabolic state. This alternative interpretation is consistent with the observation that among all metabolites that decline in abundance most precipitously as a function of the conversion of ES cells into differentiating embryoid bodies, acetyl-CoA was second only to the purine intermediate AICAR. In order to investigate these alternatives, we employed 3-hydroxynorvaline (3-HNV), a synthetic variant of threonine containing an extra carbon atom. […]
• 1. […] TDH activity was determined by measuring the rate of formation of NADH at 25° C. The assay mixture contained 100 mM Tris-HCl (pH 8.0), 25 mM L-threonine, 5 mM NAD and 25 mM NaCl in a final volume of […] The reaction was initiated by the addition of mitochondrial protein extract, and absorbance of the reaction mixture at 340 nM was recorded continuously on a microplate reader. • 10. […]

[2] = tested on: 3T3 cells; experiment: 3T3 cell growth with 3-HNV; format: cell-based
Description: (§1) Instead of the normal, 400 uM level of glycine, threonine-deficient medium was supplemented with 4 mM glycine. ES cells subjected to this threonine-deficient, glycine-enriched medium grew no better than those subjected to the threonine drop out medium itself. It is possible that ES cells are unable to deliver the supplemented glycine to mitochondria in order to feed the glycine cleavage system and folate charging. Alternatively, it is also possible that TDH-mediated production of acetyl-CoA is equally important to the HFB-like metabolic state. This alternative interpretation is consistent with the observation that among all metabolites that decline in abundance most precipitously as a function of the conversion of ES cells into differentiating embryoid bodies, acetyl-CoA was second only to the purine intermediate AICAR. In order to investigate these alternatives, we employed 3-hydroxynorvaline (3-HNV), a synthetic variant of threonine containing an extra carbon atom. It is known that the TDH enzyme can […] this threonine analog, yet instead of producing glycine and acetyl-CoA, catabolism of 3-HNV yields glycine and propionyl-CoA (15). ES cells were cultured in either normal or threonine-deficient medium supplemented with varying levels of 3-HNV. […] The inhibitory effect of 3-HNV was not observed on the growth of HeLa, MEF or 3T3 cells.

[3] = tested on: MEF cells; experiment: MEF cell growth with 3-HNV; format: cell-based, mouse
Description: as §1

[4] = tested on: morula-staged embryos; experiment: Early mouse embryo development (morula to blastocyst) in culture with 3-HNV; format: cell-based
Description: The availability of 3-HNV as a cell-permeable threonine analog facilitated experiments using living mouse embryos. Before testing the effects of 3-HNV on early mouse embryo development, in situ hybridization and immunohistochemical staining assays were performed to investigate the expression pattern of both TDH mRNA and TDH enzyme (16). […] Knowing that the ICM represents the in vivo source of ES cells (17), we hypothesized that the early development of mouse embryos might be inhibited by 3-HNV. […] These studies indicate that ICM cells of the early mouse embryo, like cultured mouse ES cells, are critically dependent upon threonine catabolism.
• 1. B. Alberts et al., Molecular Biology of the Cell (Garland Publishing, Inc., New York, ed. March, 2007), pp. 1-1392. • 2. A. G. Smith, Annu. Rev. Cell Dev. Biol. 17, 435 (2001). • 3. B. P. Tu et al., Proc. Natl. Acad. Sci. U.S.A. 104, 16886 (2007). • 4. L. Warren, J. M. Buchanan, J. Biol. Chem. 229, 613 (1957). • H. Weissbach, A. Peterkofsky, B. G. Redfield, H. Dickerman, J. Biol. Chem. 238, 3318 (1963). • 6. E. A. Phear, D. M. Greenberg, J. Am. Chem. Soc. 79, 3737 (1957). • 7. Total RNA was extracted with RNA STAT-60 (Tel-Test) and converted into cDNA with oligo(dT) primer using the SuperScript first-strand synthesis kit (Invitrogen). PCR was performed on an AB 7900HT fast real-time PCR system (Applied Bioscience) using a TDH specific primer pair. • 8. R. A. Dale, Biochim. Biophys. Acta. 544, 496 (1978). • 9. TDH cDNA with an in-frame Flag tag sequence fused to the carboxyl terminus of the enzyme was cloned into mammalian expression vector pcDNA3.1 at EcoR1/Xho1 sites. The resultant vector was transfected into 293T cells using Lipofectamine 2000 reagent (Invitrogen). Stable transformants were selected in media containing 500 μg/ml G418 and characterized by western blotting analysis using anti-Flag antibody (Sigma). To extract mitochondrial protein, cells were homogenized in the buffer containing 10 mM Tris-HCl (pH 7.5), 250 mM sucrose and 2 mM EDTA on ice with a glass pestle douncer. Mitochondria were isolated from homogenates through a two-step differential centrifugation procedure at 600 and 11,000 g for 10 m each at 4° C. Mitochondrial protein was then extracted in 100 mM potassium phosphate buffer (pH 7.4) containing 0.1% NP-40, 10 mM DTT and 1× protease inhibitor cocktail (Sigma). TDH activity was determined by measuring the rate of formation of NADH at 25° C. The assay mixture contained 100 mM Tris-HCl (pH 8.0), 25 mM L-threonine, 5 mM NAD and 25 mM NaCl in a final volume of […] The reaction was initiated by the addition of mitochondrial protein extract, and absorbance of the reaction mixture at 340 nM was recorded continuously on a microplate reader. • 10. […]

[5] = tested on: HeLa cells; experiment: HeLa cell growth with 3-HNV; format: cell-based
Description: as §1

## CCC(O)[C@H](N)C(=O)O (stereo partly drawn) [3-HNV, 3-hydroxynorvaline]
[1]; normal culture medium
  ES cell colony formation: inhibited ES cell colony formation
[1]; threonine-deficient medium
  complementation of the absence of threonine (ES cell colony formation): fail to complement the absence of threonine
[2]
  inhibitory effect on cell growth: not observed
[3]
  inhibitory effect on cell growth: not observed
[4]; 100 uM 3-HNV
  conversion of morula-staged embryos into cavitated blastocysts: A more modest degree of inhibition
[4]; 300 uM 3-HNV
  conversion of morula-staged embryos into cavitated blastocysts: blocked the conversion of morula-staged embryos into cavitated blastocysts
[4]; 1 mM 3-HNV
  conversion of morula-staged embryos into cavitated blastocysts: blocked the conversion of morula-staged embryos into cavitated blastocysts
[4]; 1 mM 3-HNV, medium supplemented by 4 mM threonine
  embryo development with threonine supplementation: Complete rescue of normal development
[5]
  inhibitory effect on cell growth: not observed
